Molecules are shown by their SMILES. pIC50: −log10 of the molar value. Where only a bound is given, the exact number is not on record here.

Assay [1] addresses T1, USP25 (USP25-His6, Boston Biochem E-546) (Homo sapiens, UniProt Q9UHP3).
T1 construct: His6; purchased Boston Biochem E-546
T1 sequence (Q9UHP3 1-1055): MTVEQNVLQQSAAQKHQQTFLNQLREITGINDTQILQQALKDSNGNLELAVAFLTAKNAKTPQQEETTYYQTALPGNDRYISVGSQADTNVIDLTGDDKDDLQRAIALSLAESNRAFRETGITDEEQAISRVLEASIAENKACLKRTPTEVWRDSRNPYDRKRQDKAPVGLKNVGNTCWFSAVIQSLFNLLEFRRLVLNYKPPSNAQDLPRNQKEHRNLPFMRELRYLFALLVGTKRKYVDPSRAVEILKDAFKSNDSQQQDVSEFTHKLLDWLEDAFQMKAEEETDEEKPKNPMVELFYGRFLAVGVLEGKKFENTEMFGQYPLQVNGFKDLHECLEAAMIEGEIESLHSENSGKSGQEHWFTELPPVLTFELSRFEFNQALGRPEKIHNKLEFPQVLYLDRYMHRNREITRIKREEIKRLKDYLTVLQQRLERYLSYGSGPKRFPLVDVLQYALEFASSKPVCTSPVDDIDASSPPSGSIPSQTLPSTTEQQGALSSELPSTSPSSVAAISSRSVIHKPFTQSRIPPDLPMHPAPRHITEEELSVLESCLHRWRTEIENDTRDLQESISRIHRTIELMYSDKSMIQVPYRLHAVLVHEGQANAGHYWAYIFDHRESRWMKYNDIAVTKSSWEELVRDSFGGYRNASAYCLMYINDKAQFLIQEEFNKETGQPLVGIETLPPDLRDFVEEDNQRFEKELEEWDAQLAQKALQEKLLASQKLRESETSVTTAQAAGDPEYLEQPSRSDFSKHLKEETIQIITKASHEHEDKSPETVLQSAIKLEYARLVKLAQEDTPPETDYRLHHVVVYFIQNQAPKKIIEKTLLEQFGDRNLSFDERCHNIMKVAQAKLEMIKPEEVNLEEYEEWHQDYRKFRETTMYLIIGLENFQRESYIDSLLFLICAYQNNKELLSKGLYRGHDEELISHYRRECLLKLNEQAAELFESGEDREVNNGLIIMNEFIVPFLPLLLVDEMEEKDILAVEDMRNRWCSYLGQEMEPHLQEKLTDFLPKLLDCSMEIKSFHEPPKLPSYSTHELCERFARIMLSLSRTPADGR
In words: Ubiquitin-Rhodamine 110 Assay for USP25 Activity, Example A-2. The class given is biochemical. To be noted: Ubiquitin-Rhodamine 110 assay, Example A-2; read-out: USP25 A-2 IC50 range. The protocol:
The assay was performed in a final volume of 9 μL in assay buffer containing 20 mM Tris-HCl (pH 8.0, (1M Tris-HCl, pH 8.0 solution; Corning 46-031-CM)), 3 mM BME (2-Mercaptoethanol; Sigma 63689-25ML-F), 0.03% BGG (0.22 μM filtered, Sigma, G7516-25G), and 0.01% Triton X-100 (Sigma, T9284-10L). Nanoliter quantities of 10-point, 3-fold serial dilution in DMSO was pre-dispensed into 1536 assay plates (Corning, #3724BC) for a final test concentration of 25 μM to 1.3 nM, top to lowest dose, respectively. Enzyme USP25, construct USP25-His6, (Boston Biochem E-546). Concentration and incubation times were optimized for the maximal signal-to-background while maintaining initial velocity conditions at a fixed substrate concentration. The final concentration of the enzyme in the assay was 75 pM. Final substrate (Ub-Rh110; Ubiquitin-Rhodamine 110, R&D Systems #U-555) concentration was 25 nM with [Ub-Rh110]<<Km. 3 μL of 2× enzyme was added to assay plates (pre-stamped with compound) preincubated with […] for 30 minutes and then 3 μL of 2×Ub-Rh110 was added to assay plates. Plates were incubated for 45 minutes at room temperature before addition of 3 μL of stop solution (final concentration of 10 mM citric acid (Sigma, 251275-500G)). Fluorescence was read on the Envision (Excitation at 485 nm and Emission at 535 nm; Perkin Elmer) or on the PheraSTAR (Excitation at 485 nm and Emission at 535 nm; BMG Labtech).
IC50 values were determined by curve fitting of the standard 4 parameter logistic fitting algorithm included in the Activity Base software package: IDBS XE Designer Model 205. Data is fitted using the Levenburg Marquardt algorithm.

The target of assay [2] is T2, USP28 (His-tagged USP28-FL-mammalian) (Homo sapiens, UniProt Q96RU2).
T2 construct: Expression of USP28 (1-1077)-TEV-6*His (pTT5 vector); made in house; host or cells: Expi293f cells (pTT5 vector)
T2 sequence (Q96RU2 1-1077): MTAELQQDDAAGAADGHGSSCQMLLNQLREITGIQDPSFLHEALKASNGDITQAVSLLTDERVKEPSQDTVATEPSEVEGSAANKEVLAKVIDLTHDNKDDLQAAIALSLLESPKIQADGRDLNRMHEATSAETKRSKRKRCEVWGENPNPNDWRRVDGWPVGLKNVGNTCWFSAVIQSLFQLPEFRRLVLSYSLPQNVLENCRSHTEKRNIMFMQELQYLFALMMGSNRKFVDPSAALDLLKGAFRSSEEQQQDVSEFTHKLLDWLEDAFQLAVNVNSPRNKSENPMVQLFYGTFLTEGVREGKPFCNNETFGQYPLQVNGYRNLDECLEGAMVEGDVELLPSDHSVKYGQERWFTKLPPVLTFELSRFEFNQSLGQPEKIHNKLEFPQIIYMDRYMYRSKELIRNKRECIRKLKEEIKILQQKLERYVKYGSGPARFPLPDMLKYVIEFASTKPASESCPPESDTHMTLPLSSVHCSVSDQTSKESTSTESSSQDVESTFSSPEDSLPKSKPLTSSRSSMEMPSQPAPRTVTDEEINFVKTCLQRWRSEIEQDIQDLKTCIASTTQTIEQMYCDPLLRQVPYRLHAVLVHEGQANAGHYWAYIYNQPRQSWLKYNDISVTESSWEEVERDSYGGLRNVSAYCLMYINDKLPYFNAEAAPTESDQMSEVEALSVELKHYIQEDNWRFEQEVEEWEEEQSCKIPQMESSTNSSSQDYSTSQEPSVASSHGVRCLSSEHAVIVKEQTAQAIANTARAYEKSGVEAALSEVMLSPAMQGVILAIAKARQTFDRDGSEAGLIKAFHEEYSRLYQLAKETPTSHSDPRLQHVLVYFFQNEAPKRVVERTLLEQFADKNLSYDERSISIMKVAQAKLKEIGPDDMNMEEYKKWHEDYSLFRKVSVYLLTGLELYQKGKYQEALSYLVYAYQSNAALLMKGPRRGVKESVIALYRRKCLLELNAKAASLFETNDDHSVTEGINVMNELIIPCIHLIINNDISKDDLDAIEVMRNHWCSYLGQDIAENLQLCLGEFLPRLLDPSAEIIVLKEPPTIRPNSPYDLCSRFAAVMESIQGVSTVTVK
The assay is described as follows: Ubiquitin-Rhodamine 110 Assay for USP28 Activity, Example A-1(a). The format is biochemical. To be noted: Ubiquitin-Rhodamine 110 assay, Example A-1(a); read-out: USP28 A-1(a) IC50 range. In a few lines:
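Full-length His-tagged human USP28 (1-1077, Expi293f-expressed), […], with 25 nM Ub-Rh110 (<<Km) in pH 8.0 Tris buffer with BME, BGG, Triton X-100. 10-point dilutions (25 μM-1.3 nM), 45 min at room temperature, citric acid stop, fluorescence 485/535 nm; IC50 by 4-parameter fit.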

As to `Cc1ccc2c(N)c(C(=O)NC3COc4cc(N5CCNCC5)ccc4C3C)sc2n1` (single isomer, unassigned) [Example 11-17], the pIC50 (commonly the IC50 on a negative log10 scale, so that one unit is a factor of ten) in assay [1] was less than 5.70. For the molecule `Cc1ccc2c(N)c(C(=O)N[C@H]3CCc4nc(N5C[C@@H](N)[C@@]6(CCOC6)C5)ccc4C3)sc2n1` [Example 431, 3-amino-N-[(6S)-2-[(5R,9S)-9-amino-2-oxa-7-azaspiro[4.4]nonan-7-yl]-5,6,7,8-tetrahydroquinolin-6-yl]-6-methylthieno[2,3-b]pyridine-2-carboxamide], the negative-log IC50 (pIC50) in assay [2] is 6.70 to 7.30.

In the case of `Cc1ccc2c(N)c(C(=O)N[C@H]3COc4cc(N5C[C@@H](N)[C@]6(CCOC6)C5)ccc4C3)sc2n1` [Example 432, 3-amino-N-[(3R)-7-[(5S,9S)-9-amino-2-oxa-7-azaspiro[4.4]nonan-7-yl]-3,4-dihydro-2H-1-benzopyran-3-yl]-6-methylthieno[2,3-b]pyridine-2-carboxamide], the pIC50 in assay [2] is 7.30 to 9.00. As for `Cc1ccc2c(N)c(C(=O)N[C@H]3COc4cc(N5C[C@@H](N)[C@@]6(CCOC6)C5)ccc4C3)sc2n1` [Example 433, 3-amino-N-[(3R)-7-[(5R,9S)-9-amino-2-oxa-7-azaspiro[4.4]nonan-7-yl]-3,4-dihydro-2H-1-benzopyran-3-yl]-6-methylthieno[2,3-b]pyridine-2-carboxamide], in assay [2], the pIC50 is 7.30 to 9.00. With `CO[C@@]12CCN[C@H]1CN(c1ccc3c(n1)CC[C@H](NC(=O)c1sc4nc(C)ccc4c1N)C3)C2` [Example 434, N-[(6S)-2-[(3aR,6aS)-3a-methoxy-octahydropyrrolo[2,3-c]pyrrol-5-yl]-5,6,7,8-tetrahydroquinolin-6-yl]-3-amino-6-methylthieno[2,3-b]pyridine-2-carboxamide], the pIC50 in assay [2] was 6.70 to 7.30. Still for that read-out and setting: the same measure for `CO[C@]12CCN[C@@H]1CN(c1ccc3c(n1)CC[C@H](NC(=O)c1sc4nc(C)ccc4c1N)C3)C2` [Example 435, N-[(6S)-2-[(3aS,6aR)-3a-methoxy-octahydropyrrolo[2,3-c]pyrrol-5-yl]-5,6,7,8-tetrahydroquinolin-6-yl]-3-amino-6-methylthieno[2,3-b]pyridine-2-carboxamide]: 6.70 to 7.30. Still for that read-out and setting: the same measure for `Cc1ccc2c(N)c(C(=O)N[C@H]3CCc4cc(N5C[C@@H](CF)[C@@H](N)C5)ccc4C3)sc2n1` [Example 436, 3-amino-N-[(2S)-6-[(3R,4R)-3-amino-4-(fluoromethyl)pyrrolidin-1-yl]-1,2,3,4-tetrahydronaphthalen-2-yl]-6-methylthieno[2,3-b]pyridine-2-carboxamide]: 7.30 to 9.00.

These data come from US11524966B1 (Valo Early Discovery, Inc., priority 2017, dated 2022).
